The record followed here is patent EP0482939A1, “Isoquinolinone derivative” (ONO PHARMACEUTICAL CO., LTD., priority 1990, dated 1992).

Series [1] has as its target T1, 5-HT3 receptor (Rattus norvegicus, UniProt P35563).
T1 construct: from tissue
T1 sequence (P35563 24-483): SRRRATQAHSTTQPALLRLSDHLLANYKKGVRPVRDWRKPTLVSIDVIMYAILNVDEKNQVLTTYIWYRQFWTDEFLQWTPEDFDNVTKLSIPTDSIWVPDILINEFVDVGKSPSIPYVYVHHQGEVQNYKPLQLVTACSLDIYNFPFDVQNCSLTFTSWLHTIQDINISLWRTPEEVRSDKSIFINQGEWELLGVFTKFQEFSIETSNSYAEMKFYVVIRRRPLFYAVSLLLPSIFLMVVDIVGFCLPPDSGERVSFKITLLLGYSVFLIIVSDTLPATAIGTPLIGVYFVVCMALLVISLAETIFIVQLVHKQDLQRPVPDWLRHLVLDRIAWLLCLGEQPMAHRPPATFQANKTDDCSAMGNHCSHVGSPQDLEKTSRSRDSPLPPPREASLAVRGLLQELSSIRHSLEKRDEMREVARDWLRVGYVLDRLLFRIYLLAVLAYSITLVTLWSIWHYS
The series can be described thus: Suppression of 5-HT-induced reflex bradycardia in urethane-anesthetised rats (antagonistic activity against 5-HT3 receptor in vivo). Details: species or system Male Wister rat. The conditions noted are these: intravenous administration, suppression of reflex bradycardia generated by i.v. 5-HT, read-out: IC50 i.v. How it is done:
Male Wister rat was urethane-anesthetised and fixed. Cannulas were inserted in the carotoid artery and in the thigh vein as used for recording of blood pressure and heart beat, and for the administration of the test compounds, respectively.
Several doses of a compound of the present invention were administered from the vein. 5-HT was administered rapidly to the vein, 2 mins. after insertion of cannulas. The suppression effect of the compounds were confirmed by the measurement of the reflex bradycardia generated (Nature 316, 126 (1985)).

Series [2] in a line: Acute toxicity by intravenous administration. Particulars: mouse, in vivo; intravenous administration in mice. As to the method:
Tests confirmed that the toxicity of the compounds of the present invention is very low. Therefore, the compounds of the present invention may be considered to be sufficiently safe and suitable for pharmaceutical use.
For example, the value of acute toxicity (LD50) of the compound prepared as in Example 1 was 50 mg/kg animal body weight by intravenous administration in mice.

Consider `CNc1cc2ccn(Cc3nc[nH]c3C)c(=O)c2cc1Cl.Cl.Cl` [1(d), 6-methylamino-7-chloro-2-(5-methyl-imidazol-4-ylmethyl)-1,2-dihydro-isoquinolin-1-one dihydrochloride], for which the ED50 in series [1] came out at 0.49 mg/kg. The same measure, in the same setting: with `CNc1cc(Cl)cc2c(=O)n(Cc3nc[nH]c3C)ccc12.Cl.Cl` [1(e), 5-methylamino-7-chloro-2-(5-methyl-imidazol-4-ylmethyl)-1,2-dihydro-isoquinolin-1-one dihydrochloride] the figure was 1.44 mg/kg; with `CC(=O)Nc1cc2ccn(Cc3nc[nH]c3C)c(=O)c2cc1Cl` [Example 1(a)], 0.99 mg/kg. As a reminder, the LD50 is the dose expected to kill half of the subjects tested. For `Cc1[nH]cnc1Cn1ccc2cc(N)c(Cl)cc2c1=O.Cl.Cl` [Example 1, 6-amino-7-chloro-2-(5-methylimidazol-4-ylmethyl)-1,2-dihydroisoquinolin-1-one dihydrochloride], the ED50 in series [1] stood at 0.39 mg/kg. In series [2], this molecule gave an LD50 of 50 mg/kg.
